{"source": "patent US20220364990A1", "about": "“ANALYSIS OF OSCILLATORY FLUORESCENCE FROM BIOLOGICAL CELLS” (MOLECULAR DEVICES, LLC, priority 2019, published 2022)", "key": {"[1]": {"system": "Human iPSC-derived neural 3D co-cultures (microBrain 3D spheroids)", "assay": "Calcium oscillation assay in iPSC-derived neural 3D spheroids (microBrain 3D, FLIPR Calcium 6 Assay Kit, Peak Pro 2 analysis)", "assay_type": "cell-based", "conditions": "neural spheroid; for frequency of primary peaks relative to control: control DMSO; for peaks detected in calcium oscillation trace (primary / secondary peaks): recorded ten minutes after 30 minutes treatment", "text": "Human iPSC-derived neural 3D co-cultures (StemoniX® microBrain® 3D platform) have been developed as a high-throughput screening platform that more closely resembles the constitution of native human cortical brain tissue. Neural spheroid 3D co-cultures are a physiologically relevant co-culture of iPSC-derived, functionally-active cortical glutamatergic and GABAergic neurons co-differentiated and matured with astrocytes from the same donor. 3D neural spheroids contain a neural network enriched in synapses, creating a highly functional neuronal circuitry and display spontaneous synchronized, readily detectable calcium oscillations.\nThe neuronal cells in the microBrain® 3D spheroids generate spontaneous synchronized calcium oscillations. Fast kinetic fluorescence imaging by the FLIPR® Penta® system was employed to measure the patterns and frequencies of Ca^2+ oscillations of neuro-spheroids, as monitored by changes in intracellular Ca^2+ levels with the FLIPR® Calcium 6 Assay Kit. A set of known neuromodulators was tested, including agonists and antagonists of NMDA, GABA and AMPA receptors; kainic acid; and analgesic and anti-epileptic drugs. The fluorescence from each well of an entire 384-well plate was recorded simultaneously at a frequency of 2 Hz (0.5 second sampling interval) by high-speed imaging using the FLIPR® Penta® system.\nAdvanced analysis methods implemented in the ScreenWorks® Peak Pro™ 2 software module provide multi-parametric characterization of Ca^2+ flux oscillation patterns. This phenotypic assay creates readouts such as oscillation frequency, amplitude, peak width, peak rise and decay times, and peak amplitude/spacing irregularity. The effects of modulators of neuronal activity were evaluated by measuring changes in several measurements.\nA set of over twenty compounds, including a number of known modulators of neuronal activity, was assayed at different time points and concentrations, and the EC50 values were calculated for compound effects. The time points included 0, 15, 30, 60, 90, and 120 minutes, and 24 hours."}, "[2]": {"system": "human iPSC-derived cardiomyocytes", "assay": "Calcium oscillation assay in iPSC-derived cardiomyocytes (FLIPR Penta, EarlyTox Cardiotoxicity Kit, Peak Pro 2 analysis)", "assay_type": "cell-based", "conditions": "for peaks detected in calcium oscillation trace (primary / secondary peaks): recorded two minutes after thirty minutes treatment; for spacing of primary peaks / primary peak prolongation: after thirty minutes treatment", "experimental": "Development of biologically relevant and predictive cell-based assays for compound screening and toxicity assessment is a major challenge in drug discovery. The focus of this study was to establish high-throughput-compatible cardiotoxicity assays using human-induced pluripotent stem cell (iPSC)-derived cardiomyocytes. To assess the utility of human iPSC-derived cardiomyocytes as an in vitro pro-arrhythmia model, the concentration dependence and responses were evaluated for 28 drugs linked to low, intermediate, and high torsades de pointes (TdP) risk categories. […] This assay allows for the characterization of parameters such as beating frequency, amplitude, peak width, and rise and decay times. […] The iPSC-derived cardiomyocytes generate spontaneous synchronized calcium oscillations. High speed fluorescence imaging with the FLIPR® Penta® System was used to measure the patterns and frequencies of the Ca^2+ oscillations in cardiomyocytes as monitored by changes in intracellular Ca^2+ levels with the EarlyToxTM Cardiotoxicity Kit. A set of 28 known cardiotoxic compounds, plus several benchmark compounds and negative controls, were tested in the assay. iPSC-derived Cardiomyocytes: Cryopreserved human iPSC-derived cells from Cellular Dynamics International (CDI) iCell® Cardiomyocytes2 were used for experiments. Cells were thawed and plated at 20,000/well (96-well format) or 10,000/well into 384-well format plates (Corning) and incubated for 7 days in maintenance media. […] In addition, assay-ready 384-Well plates with cardiomyocytes1 were obtained from […], Inc. Plates were shipped pre-plated and allowed to recover after arrival for 2 days. […] The FLIPR® Penta® System equipped with a new high speed camera allows better resolution of calcium oscillation patterns in cardiomyocytes. The ScreenWorks® Peak ProTM 2 software allows complex event analysis and detailed characterization of patterns using more than 20 available pattern descriptors. The assay can be used for testing developing drugs and screening chemicals for potential cardiotoxic hazards."}, "[3]": {"conditions": "10 μM, after 30 minutes treatment"}, "[4]": {"conditions": "0.3 μM, after 30 minutes treatment"}}}
{"smiles": "Nc1ccncc1", "note": "[4-aminopyridine]", "values": [{"measurement": "frequency of primary peaks relative to control", "setting": "[1]; 30 μM, after 30 minutes treatment", "value": "increased relative to control"}, {"measurement": "peaks detected in calcium oscillation trace (primary / secondary peaks)", "setting": "[1]; 30 μM", "value": "Primary peaks 118 and secondary peaks 150 are detected"}]}
{"smiles": "NCCCC(=O)O", "note": "[GABA]", "values": [{"measurement": "frequency of primary peaks relative to control", "setting": "[1]; [3]", "value": "significantly lower frequency than control"}, {"measurement": "peaks detected in calcium oscillation trace (primary / secondary peaks)", "setting": "[1]; 10 μM", "value": "Only primary peaks 118 are detected"}]}
{"smiles": "COc1ccc(CCN2CCC(Nc3nc4ccccc4n3Cc3ccc(F)cc3)CC2)cc1", "note": "[astemizole]", "values": [{"measurement": "peaks detected in calcium oscillation trace (primary / secondary peaks)", "setting": "[2]; 1 μM", "value": "No valid peaks are detected"}]}
{"smiles": "NCC(CC(=O)O)c1ccc(Cl)cc1", "note": "(stereo not shown) [baclofen]", "values": [{"measurement": "spacing and amplitude regularity of primary peaks", "setting": "[1]; [3]", "value": "irregular spacing and amplitude"}, {"measurement": "frequency of primary peaks relative to control", "setting": "[1]; [3]", "value": "significantly lower frequency than control"}, {"measurement": "peaks detected in calcium oscillation trace (primary / secondary peaks)", "setting": "[1]; 10 μM", "value": "Only primary peaks 118 are detected"}]}
{"smiles": "CN(CCOc1ccc(NS(C)(=O)=O)cc1)CCc1ccc(NS(C)(=O)=O)cc1", "note": "[dofetilide]", "values": [{"measurement": "spacing of primary peaks", "setting": "[2]; 10 μM", "value": "irregular spacing"}]}
{"smiles": "CCCCCCCN(CC)CCCC(O)c1ccc(NS(C)(=O)=O)cc1", "note": "(stereo not shown) [ibutilide]", "values": [{"measurement": "primary peak prolongation", "setting": "[2]; 1 μM", "value": "prolongated"}, {"measurement": "peaks detected in calcium oscillation trace (primary / secondary peaks)", "setting": "[2]; 1 μM", "value": "Primary peaks 118 and secondary peaks 150 are present"}]}
{"smiles": "C=C(C)[C@H]1CN[C@H](C(=O)O)[C@H]1CC(=O)O", "note": "[kainic acid]", "values": [{"measurement": "frequency of primary peaks relative to control", "setting": "[1]; 1 μM, after 30 minutes treatment", "value": "increased relative to control"}, {"measurement": "peaks detected in calcium oscillation trace (primary / secondary peaks)", "setting": "[1]; 1 μM", "value": "Primary peaks 118 and numerous secondary peaks 150 are detected"}]}
{"smiles": "C=C[C@H]1C[N@@]2CC[C@H]1C[C@@H]2[C@@H](O)c1ccnc2ccc(OC)cc12", "note": "[quinidine]", "values": [{"measurement": "primary peak prolongation", "setting": "[2]; 10 μM", "value": "prolongated"}, {"measurement": "spacing of primary peaks", "setting": "[2]; 10 μM", "value": "irregular spacing"}, {"measurement": "peaks detected in calcium oscillation trace (primary / secondary peaks)", "setting": "[2]; 10 μM", "value": "Primary peaks 118 and secondary peaks 150 are detected"}]}
{"smiles": "CC(C)NCC(O)c1ccc(NS(C)(=O)=O)cc1", "note": "(stereo not shown) [sotalol]", "values": [{"measurement": "primary peak prolongation", "setting": "[2]; 10 μM", "value": "prolongated"}, {"measurement": "spacing of primary peaks", "setting": "[2]; 10 μM", "value": "irregular spacing"}, {"measurement": "peaks detected in calcium oscillation trace (primary / secondary peaks)", "setting": "[2]; 10 μM", "value": "Primary peaks 118 and secondary peaks 150 are detected"}]}
{"smiles": "CC(C)[C@@H]1NC(=O)[C@H](C)OC(=O)[C@@H](C(C)C)NC(=O)[C@@H](C(C)C)OC(=O)[C@H](C(C)C)NC(=O)[C@H](C)OC(=O)[C@@H](C(C)C)NC(=O)[C@@H](C(C)C)OC(=O)[C@H](C(C)C)NC(=O)[C@H](C)OC(=O)[C@@H](C(C)C)NC(=O)[C@@H](C(C)C)OC1=O", "note": "[valinomycin]", "values": [{"measurement": "amplitude and spacing regularity of primary peaks", "setting": "[1]; [4]", "value": "much more variable"}, {"measurement": "frequency of primary peaks relative to control", "setting": "[1]; [4]", "value": "much less than control"}, {"measurement": "peaks detected in calcium oscillation trace (primary / secondary peaks)", "setting": "[1]; 0.3 μM", "value": "Primary peaks 118 and secondary peaks 150 are detected"}]}
